# Test results from ChEMBL document CHEMBL1126617, “A topochemical approach to explain morphiceptin bioactivity” (J Med Chem, 1993).
# Assays:
# [1] = target: Delta-type opioid receptor (Mus musculus, UniProt P32300); assay: In vitro inhibitory activity against delta opioid receptor using mouse vas deferens (MVD) assay; type: tissue-based
# Mu-type opioid receptor = Mu-type opioid receptor (Cavia porcellus, UniProt P97266); assay: In vitro inhibitory activity against mu opioid receptor using guinea pig ileum (GPI) assay; type: tissue-based
# Sequence of Mu-type opioid receptor (P97266 whole entry): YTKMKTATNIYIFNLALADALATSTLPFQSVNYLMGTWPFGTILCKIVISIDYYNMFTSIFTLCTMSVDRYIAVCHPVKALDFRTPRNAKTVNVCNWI
# Sequence of Delta-type opioid receptor (P32300 whole entry): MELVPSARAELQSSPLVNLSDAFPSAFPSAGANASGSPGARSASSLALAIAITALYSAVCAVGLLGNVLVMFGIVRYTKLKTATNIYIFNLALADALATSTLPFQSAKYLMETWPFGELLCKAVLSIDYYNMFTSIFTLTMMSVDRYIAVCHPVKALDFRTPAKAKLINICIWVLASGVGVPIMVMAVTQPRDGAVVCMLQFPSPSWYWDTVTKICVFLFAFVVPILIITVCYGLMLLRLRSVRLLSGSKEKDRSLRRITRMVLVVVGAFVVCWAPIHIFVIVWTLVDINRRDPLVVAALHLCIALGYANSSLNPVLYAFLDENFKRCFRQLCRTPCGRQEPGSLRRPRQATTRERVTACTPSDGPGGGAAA
SMILES,IC50 [1] [µM],IC50 (Mu-type opioid receptor) [µM]
CN(C(=O)[C@@H]1CCCN1C(=O)[C@@H](N)Cc1ccc(O)cc1)[C@H](Cc1ccccc1)C(=O)N1CCC[C@@H]1C(N)=O,565,2.66
C[C@H](NC(=O)[C@@H](N)Cc1ccc(O)cc1)C(=O)N[C@@H](Cc1ccccc1)C(=O)N1CCC[C@@H]1C(N)=O,> 100,–
NC(=O)[C@@H]1CCCN1C(=O)[C@H](Cc1ccccc1)NC(=O)[C@@H]1CCCN1C(=O)[C@@H](N)Cc1ccc(O)cc1 [MORPHICEPTIN],3.69,0.552
CN(C(=O)[C@@H]1CCCN1C(=O)[C@@H](N)Cc1ccc(O)cc1)[C@H](Cc1ccccc1)C(=O)N1CCC[C@H]1C(N)=O,> 1000,> 100
NC(=O)[C@H]1CCCN1C(=O)[C@@H](Cc1ccccc1)NC(=O)[C@@H]1CCCN1C(=O)[C@@H](N)Cc1ccc(O)cc1,4.81,0.557
CN(C(=O)[C@@H]1CCCN1C(=O)[C@@H](N)Cc1ccc(O)cc1)[C@@H](Cc1ccccc1)C(=O)N1CCC[C@H]1C(N)=O,1.79,0.17
NC(=O)[C@H]1CCCN1C(=O)[C@H](Cc1ccccc1)NC(=O)[C@@H]1CCCN1C(=O)[C@@H](N)Cc1ccc(O)cc1,1.51,0.0287
NC(=O)[C@@H]1CCCN1C(=O)[C@@H](Cc1ccccc1)NC(=O)[C@@H]1CCCN1C(=O)[C@@H](N)Cc1ccc(O)cc1,0.594,0.109
CN(C(=O)[C@@H]1CCCN1C(=O)[C@@H](N)Cc1ccc(O)cc1)[C@@H](Cc1ccccc1)C(=O)N1CCC[C@@H]1C(N)=O,1.25,0.0207
C[C@@H](C(=O)N[C@@H](Cc1ccccc1)C(=O)N1CCC[C@@H]1C(N)=O)N(C)C(=O)[C@@H](N)Cc1ccc(O)cc1,0.202,0.0306
